Measurements as given in ChEMBL document CHEMBL1201862, “PubChem BioAssay data set” (2004).
Activity calls are given as the source filed them.

What was measured:
Format in all cases: functional
[1] = target: T1, Apoptotic protease-activating factor 1 (Homo sapiens, UniProt O14727)
T1 sequence (O14727 whole entry): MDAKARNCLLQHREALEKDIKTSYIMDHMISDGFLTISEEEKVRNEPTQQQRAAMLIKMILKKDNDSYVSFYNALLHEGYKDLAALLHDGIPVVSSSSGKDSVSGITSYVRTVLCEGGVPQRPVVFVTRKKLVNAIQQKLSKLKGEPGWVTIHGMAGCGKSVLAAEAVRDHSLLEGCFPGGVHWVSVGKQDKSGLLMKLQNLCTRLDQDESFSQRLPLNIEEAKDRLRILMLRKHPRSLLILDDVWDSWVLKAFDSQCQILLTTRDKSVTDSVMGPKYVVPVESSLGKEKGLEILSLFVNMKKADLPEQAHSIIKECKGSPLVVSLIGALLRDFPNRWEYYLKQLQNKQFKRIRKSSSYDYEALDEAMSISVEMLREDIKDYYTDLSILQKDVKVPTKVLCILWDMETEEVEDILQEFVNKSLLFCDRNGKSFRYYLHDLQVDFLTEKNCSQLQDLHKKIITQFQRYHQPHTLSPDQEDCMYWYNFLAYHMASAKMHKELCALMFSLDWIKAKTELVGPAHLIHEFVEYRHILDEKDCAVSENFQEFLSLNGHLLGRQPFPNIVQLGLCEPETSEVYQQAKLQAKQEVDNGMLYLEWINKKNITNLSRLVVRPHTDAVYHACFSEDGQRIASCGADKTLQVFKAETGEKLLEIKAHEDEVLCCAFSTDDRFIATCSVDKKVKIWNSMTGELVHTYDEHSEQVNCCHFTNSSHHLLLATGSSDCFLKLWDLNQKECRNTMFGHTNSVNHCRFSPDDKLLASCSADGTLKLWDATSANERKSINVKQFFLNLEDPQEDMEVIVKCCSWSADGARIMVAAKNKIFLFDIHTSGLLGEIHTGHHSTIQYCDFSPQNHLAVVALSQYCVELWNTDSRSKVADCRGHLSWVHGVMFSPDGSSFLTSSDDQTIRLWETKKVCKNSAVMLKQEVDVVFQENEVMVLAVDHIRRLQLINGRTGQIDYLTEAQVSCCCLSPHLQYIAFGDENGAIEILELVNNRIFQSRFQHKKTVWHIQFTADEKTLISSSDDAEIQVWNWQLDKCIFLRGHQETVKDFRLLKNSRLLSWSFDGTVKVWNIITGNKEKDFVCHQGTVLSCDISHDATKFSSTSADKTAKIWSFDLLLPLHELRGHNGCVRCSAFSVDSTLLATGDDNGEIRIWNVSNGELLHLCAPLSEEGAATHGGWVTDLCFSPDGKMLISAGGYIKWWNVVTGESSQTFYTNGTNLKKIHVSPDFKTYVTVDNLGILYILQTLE

[2] = target: 5'-AMP-activated protein kinase catalytic subunit alpha-1 (Homo sapiens, UniProt Q13131)
[3] = target: Death-associated protein kinase 3 (Homo sapiens, UniProt O43293);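 note: measured as one member of a kinome-wide profiling panel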
[4] = target: Fibroblast growth factor receptor 1 (Homo sapiens, UniProt P11362)
[5] = target: Casein kinase I isoform alpha (Homo sapiens, UniProt P48729)
Casein kinase I isoform alpha, sequence (P48729 whole entry, canonical isoform): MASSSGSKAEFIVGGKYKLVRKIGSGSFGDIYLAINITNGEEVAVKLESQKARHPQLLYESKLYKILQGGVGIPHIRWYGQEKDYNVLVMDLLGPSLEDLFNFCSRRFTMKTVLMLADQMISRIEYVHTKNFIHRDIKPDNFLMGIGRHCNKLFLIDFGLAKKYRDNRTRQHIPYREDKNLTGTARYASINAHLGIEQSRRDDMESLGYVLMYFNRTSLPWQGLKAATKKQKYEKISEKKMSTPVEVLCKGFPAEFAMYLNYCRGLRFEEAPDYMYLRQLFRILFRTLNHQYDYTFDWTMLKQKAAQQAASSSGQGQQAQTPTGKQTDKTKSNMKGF

[6] = target: T2, Serine/threonine-protein kinase TAO1 (Homo sapiens, UniProt Q7L7X3)
T2 sequence (Q7L7X3 whole entry): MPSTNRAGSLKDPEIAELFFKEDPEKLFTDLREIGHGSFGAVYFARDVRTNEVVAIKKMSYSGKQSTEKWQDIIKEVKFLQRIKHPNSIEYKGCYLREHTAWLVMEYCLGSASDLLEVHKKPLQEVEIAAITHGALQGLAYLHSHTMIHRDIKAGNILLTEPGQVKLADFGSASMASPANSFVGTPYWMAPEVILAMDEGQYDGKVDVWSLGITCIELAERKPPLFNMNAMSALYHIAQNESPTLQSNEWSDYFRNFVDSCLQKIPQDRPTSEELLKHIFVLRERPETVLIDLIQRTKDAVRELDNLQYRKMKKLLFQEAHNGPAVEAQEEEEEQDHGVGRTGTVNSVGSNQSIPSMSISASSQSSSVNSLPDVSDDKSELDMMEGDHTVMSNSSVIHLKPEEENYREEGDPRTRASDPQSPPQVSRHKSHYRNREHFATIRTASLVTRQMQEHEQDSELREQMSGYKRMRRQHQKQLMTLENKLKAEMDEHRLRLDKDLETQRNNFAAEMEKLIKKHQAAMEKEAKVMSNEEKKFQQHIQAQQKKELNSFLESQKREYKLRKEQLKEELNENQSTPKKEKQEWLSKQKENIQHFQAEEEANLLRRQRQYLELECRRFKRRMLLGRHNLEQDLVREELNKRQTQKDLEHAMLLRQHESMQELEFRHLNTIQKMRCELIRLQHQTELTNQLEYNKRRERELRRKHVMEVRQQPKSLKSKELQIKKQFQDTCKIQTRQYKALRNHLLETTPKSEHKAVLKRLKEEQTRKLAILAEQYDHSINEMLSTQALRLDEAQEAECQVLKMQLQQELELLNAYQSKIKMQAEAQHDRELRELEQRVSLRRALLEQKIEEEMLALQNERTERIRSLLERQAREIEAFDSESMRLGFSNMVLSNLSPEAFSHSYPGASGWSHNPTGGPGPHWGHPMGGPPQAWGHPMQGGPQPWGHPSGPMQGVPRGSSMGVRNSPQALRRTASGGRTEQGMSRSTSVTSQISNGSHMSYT

[7] = target: Vascular endothelial growth factor receptor 2 (Homo sapiens, UniProt P35968)
Vascular endothelial growth factor receptor 2, sequence (P35968 whole entry): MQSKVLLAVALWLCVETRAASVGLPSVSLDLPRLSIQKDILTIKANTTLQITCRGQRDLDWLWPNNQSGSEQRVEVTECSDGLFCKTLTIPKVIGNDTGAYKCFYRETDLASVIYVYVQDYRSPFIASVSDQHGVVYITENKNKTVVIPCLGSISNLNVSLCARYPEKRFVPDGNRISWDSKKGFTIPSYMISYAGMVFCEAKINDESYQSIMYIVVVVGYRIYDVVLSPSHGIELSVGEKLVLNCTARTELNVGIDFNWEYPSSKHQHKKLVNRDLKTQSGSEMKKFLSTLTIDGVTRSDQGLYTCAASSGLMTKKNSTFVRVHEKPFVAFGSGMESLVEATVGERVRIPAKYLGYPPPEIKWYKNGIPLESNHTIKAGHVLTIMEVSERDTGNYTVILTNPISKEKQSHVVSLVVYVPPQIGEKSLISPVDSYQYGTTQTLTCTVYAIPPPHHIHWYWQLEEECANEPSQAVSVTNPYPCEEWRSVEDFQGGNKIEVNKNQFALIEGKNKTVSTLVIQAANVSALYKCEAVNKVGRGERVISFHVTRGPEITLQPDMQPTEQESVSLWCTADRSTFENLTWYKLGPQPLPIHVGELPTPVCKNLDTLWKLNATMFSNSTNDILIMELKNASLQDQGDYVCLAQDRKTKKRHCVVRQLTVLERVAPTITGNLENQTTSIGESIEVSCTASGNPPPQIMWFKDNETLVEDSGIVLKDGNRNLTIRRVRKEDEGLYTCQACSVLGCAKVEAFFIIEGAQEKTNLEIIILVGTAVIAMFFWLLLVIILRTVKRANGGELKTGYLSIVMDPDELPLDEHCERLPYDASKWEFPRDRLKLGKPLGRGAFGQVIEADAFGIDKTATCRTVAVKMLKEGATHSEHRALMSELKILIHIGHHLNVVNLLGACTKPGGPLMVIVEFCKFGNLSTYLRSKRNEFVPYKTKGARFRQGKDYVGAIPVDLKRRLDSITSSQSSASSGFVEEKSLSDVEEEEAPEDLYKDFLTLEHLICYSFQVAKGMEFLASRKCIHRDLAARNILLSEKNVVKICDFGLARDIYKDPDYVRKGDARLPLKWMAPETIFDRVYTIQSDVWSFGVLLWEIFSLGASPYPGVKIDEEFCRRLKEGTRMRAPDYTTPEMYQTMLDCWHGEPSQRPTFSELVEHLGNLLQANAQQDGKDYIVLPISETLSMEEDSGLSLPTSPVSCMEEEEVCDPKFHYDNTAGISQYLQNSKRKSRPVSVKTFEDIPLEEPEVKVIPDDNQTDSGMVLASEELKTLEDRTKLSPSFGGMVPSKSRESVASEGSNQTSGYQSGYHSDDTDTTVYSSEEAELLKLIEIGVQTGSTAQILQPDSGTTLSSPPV

[8] = target: Cyclin-dependent kinase 5 (Homo sapiens, UniProt Q00535);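 note: CDK5 measured as one member of a kinase profiling panel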
Cyclin-dependent kinase 5, sequence (Q00535 whole entry): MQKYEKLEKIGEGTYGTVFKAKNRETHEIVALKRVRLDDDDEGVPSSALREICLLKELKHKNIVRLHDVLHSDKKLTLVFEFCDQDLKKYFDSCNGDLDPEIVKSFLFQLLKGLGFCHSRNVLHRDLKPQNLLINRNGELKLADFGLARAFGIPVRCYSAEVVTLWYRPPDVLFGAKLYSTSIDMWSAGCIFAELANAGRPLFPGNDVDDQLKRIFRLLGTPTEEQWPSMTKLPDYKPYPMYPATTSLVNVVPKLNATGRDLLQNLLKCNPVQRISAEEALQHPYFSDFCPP

[9] = target: Leucine-rich repeat serine/threonine-protein kinase 2 (Homo sapiens, UniProt Q5S007);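 note: value from a broad kinome-wide panel profiling study in which LRRK2 was one of the kinases tested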
Leucine-rich repeat serine/threonine-protein kinase 2, sequence (Q5S007 whole entry): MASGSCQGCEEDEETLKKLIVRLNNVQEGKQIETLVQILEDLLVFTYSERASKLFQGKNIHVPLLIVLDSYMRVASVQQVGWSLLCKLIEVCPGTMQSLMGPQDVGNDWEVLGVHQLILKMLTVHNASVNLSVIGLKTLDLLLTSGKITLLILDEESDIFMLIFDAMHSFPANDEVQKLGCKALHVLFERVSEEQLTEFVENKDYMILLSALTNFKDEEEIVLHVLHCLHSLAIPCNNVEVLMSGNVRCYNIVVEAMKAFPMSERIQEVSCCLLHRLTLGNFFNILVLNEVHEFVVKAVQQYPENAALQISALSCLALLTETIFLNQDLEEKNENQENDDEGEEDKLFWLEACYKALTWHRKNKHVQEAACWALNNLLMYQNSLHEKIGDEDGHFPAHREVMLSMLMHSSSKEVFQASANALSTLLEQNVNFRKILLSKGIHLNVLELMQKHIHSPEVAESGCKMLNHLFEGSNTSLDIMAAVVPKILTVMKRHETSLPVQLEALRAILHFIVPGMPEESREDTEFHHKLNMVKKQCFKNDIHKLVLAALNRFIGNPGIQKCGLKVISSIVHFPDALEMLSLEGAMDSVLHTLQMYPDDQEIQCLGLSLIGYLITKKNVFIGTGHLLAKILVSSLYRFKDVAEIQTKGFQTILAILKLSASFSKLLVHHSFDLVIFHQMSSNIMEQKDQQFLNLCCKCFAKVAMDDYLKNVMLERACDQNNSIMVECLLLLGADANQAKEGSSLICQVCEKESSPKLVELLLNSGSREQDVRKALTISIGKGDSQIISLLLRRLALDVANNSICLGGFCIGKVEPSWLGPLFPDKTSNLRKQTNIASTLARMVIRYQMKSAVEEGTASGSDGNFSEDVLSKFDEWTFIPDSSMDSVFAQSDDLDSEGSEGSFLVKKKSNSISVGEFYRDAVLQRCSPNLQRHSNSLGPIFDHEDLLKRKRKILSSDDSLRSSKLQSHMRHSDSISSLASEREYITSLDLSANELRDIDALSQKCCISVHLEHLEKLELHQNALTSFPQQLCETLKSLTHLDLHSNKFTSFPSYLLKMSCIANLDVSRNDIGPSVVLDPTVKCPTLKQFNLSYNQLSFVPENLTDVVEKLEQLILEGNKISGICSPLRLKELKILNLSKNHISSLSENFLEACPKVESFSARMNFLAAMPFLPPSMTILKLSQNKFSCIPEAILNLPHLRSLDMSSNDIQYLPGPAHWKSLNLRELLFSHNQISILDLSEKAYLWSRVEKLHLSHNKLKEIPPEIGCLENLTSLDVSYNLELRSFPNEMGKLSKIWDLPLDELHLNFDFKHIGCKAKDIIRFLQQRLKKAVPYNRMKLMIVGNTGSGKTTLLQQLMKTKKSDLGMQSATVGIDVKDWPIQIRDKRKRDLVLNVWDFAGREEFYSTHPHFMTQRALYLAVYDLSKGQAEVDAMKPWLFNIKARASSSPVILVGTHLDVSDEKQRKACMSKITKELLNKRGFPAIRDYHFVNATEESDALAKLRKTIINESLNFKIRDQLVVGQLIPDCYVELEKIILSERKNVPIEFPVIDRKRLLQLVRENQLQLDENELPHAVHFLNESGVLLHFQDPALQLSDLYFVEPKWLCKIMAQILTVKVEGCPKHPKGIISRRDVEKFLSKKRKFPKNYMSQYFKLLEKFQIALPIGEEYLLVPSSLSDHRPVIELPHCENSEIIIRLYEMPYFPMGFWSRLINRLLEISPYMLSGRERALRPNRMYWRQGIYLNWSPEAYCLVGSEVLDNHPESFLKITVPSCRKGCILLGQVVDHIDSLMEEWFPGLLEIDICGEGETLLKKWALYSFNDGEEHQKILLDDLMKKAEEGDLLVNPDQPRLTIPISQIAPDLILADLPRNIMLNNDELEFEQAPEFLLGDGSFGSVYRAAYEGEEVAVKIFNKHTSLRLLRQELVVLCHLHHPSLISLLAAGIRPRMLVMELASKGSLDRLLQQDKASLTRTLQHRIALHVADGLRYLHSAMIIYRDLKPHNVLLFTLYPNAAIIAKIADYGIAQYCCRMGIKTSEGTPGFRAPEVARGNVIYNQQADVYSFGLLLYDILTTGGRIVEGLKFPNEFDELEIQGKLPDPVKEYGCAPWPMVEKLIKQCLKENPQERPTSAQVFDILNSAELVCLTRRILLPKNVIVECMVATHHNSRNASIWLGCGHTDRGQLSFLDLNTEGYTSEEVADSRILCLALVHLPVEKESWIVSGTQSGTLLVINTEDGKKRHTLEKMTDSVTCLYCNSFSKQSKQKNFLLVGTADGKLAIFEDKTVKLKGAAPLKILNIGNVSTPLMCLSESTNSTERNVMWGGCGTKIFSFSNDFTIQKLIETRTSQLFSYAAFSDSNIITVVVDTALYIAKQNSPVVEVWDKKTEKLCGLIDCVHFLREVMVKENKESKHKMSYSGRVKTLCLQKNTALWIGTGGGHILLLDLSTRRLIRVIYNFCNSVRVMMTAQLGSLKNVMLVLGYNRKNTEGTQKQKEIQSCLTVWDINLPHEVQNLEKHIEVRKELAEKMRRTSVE

[10] = target: Tyrosine-protein kinase Fyn (Homo sapiens, UniProt P06241)
[11] = target: Cyclin-dependent kinase 8 (Homo sapiens, UniProt P49336); test: Navigating the Kinome. Panel member name: CDK8
Cyclin-dependent kinase 8, sequence (P49336 whole entry): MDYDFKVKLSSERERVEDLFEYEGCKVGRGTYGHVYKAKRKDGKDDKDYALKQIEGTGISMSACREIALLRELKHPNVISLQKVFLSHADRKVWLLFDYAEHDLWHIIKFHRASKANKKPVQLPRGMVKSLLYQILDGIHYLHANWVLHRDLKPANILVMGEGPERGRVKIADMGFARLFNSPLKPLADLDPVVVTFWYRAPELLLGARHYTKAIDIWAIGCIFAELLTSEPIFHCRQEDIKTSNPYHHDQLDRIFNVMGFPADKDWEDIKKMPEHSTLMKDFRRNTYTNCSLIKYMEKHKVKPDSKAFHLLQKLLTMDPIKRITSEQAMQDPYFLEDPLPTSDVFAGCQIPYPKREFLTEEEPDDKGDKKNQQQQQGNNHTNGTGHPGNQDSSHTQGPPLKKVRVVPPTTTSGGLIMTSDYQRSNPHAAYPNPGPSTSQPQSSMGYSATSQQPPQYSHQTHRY

[12] = target: cAMP-dependent protein kinase catalytic subunit alpha (Homo sapiens, UniProt P17612)
[13] = target: Mitogen-activated protein kinase 8 (Homo sapiens, UniProt P45983);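 note: value comes from one member of a kinome-wide kinase profiling panel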
[14] = target: Hepatocyte growth factor receptor (Homo sapiens, UniProt P08581);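 note: kinase panel profiling across the kinome, with MET as the panel member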
[15] = target: BDNF/NT-3 growth factors receptor (Homo sapiens, UniProt Q16620);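 note: NTRK2 measured as one member of a broad kinome-wide kinase profiling panel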
[16] = target: Mitogen-activated protein kinase 14 (Homo sapiens, UniProt Q16539);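 note: part of a kinome-wide panel, MAPK14 entry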

Structure (SMILES) | IC50 [1] | Ki [2] | Ki [3] | Ki [4] | Ki [5] | Ki [6] | Ki [7] | Ki [8] | Ki [9] | Ki [10] | Ki [11] | Ki [12] | Ki [13] | Ki [14] | Ki [15] | Ki [16]
O=C(Cc1ccccc1)NC1(O)C(=O)c2ccccc2C1=O | 11 µM (active) | – | – | – | – | – | – | – | – | – | – | – | – | – | – | –
O=c1[nH]c2cc(Br)cnc2[nH]1 | – | 25.1 µM (active) | 12.6 µM (active) | 50.1 µM (active) | 6.31 µM (active) | 12.6 µM (active) | 20 µM (active) | 0.0501 µM (active) | 3.98 µM (active) | 100 µM (active) | 7.94 µM (active) | > 50.1 µM (inactive) | – | – | – | –
O=C(Nc1cccc(C(F)(F)F)n1)Nc1ccnc2cc(OC(F)F)ccc12 | – | > 3.16 µM (inactive) | > 5.01 µM (inactive) | > 3.98 µM (inactive) | > 3.98 µM (inactive) | > 6.31 µM (inactive) | > 1.58 µM (inactive) | > 3.16 µM (inactive) | > 2.51 µM (inactive) | > 6.31 µM (inactive) | > 3.98 µM (inactive) | – | > 5.01 µM (inactive) | > 2.51 µM (inactive) | > 3.98 µM (inactive) | > 3.98 µM (inactive)
O=C(Nc1cccc(C(F)(F)F)n1)Nc1ccnc2cc(Cl)ccc12 | – | > 3.16 µM (inactive) | > 5.01 µM (inactive) | > 3.98 µM (inactive) | > 3.98 µM (inactive) | > 6.31 µM (inactive) | > 2.51 µM (inactive) | > 3.16 µM (inactive) | > 2.51 µM (inactive) | > 6.31 µM (inactive) | > 3.98 µM (inactive) | > 1.26 µM (inactive) | > 5.01 µM (inactive) | > 2.51 µM (inactive) | > 3.98 µM (inactive) | > 3.98 µM (inactive)
CCC1CC(NS(=O)(=O)C2CC2)CC1c1ncc2cnc3[nH]ccc3n12 (stereo not drawn) | – | 2 µM (active) | 0.794 µM (active) | 1.26 µM (active) | > 3.98 µM (inactive) | > 2 µM (inactive) | 1 µM (active) | > 3.16 µM (inactive) | 0.1 µM (active) | > 6.31 µM (inactive) | > 3.16 µM (inactive) | 0.2 µM (active) | > 5.01 µM (inactive) | > 2.51 µM (inactive) | > 3.98 µM (inactive) | > 3.98 µM (inactive)
Cc1cc(C)c(S(=O)(=O)/N=C2\C=C(Nc3ccc(C(=O)O)cc3)C(=O)c3ccccc32)c(C)c1 | 6.01 µM (active) | – | – | – | – | – | – | – | – | – | – | – | – | – | – | –
COC(=O)c1nc(-c2ccc3c(n2)C(=O)C(=N)C(OC)=C3O)c(N)c(-c2ccc(OC)c(OC)c2O)c1C | 3.39 µM (active) | – | – | – | – | – | – | – | – | – | – | – | – | – | – | –
